Laboratory results taken from the NIST ThermoML archive (doi:10.1016/j.tca.2012.11.015).
Numbers after ± are expanded uncertainties.

Assay: molar heat capacity at constant pressure
Conditions: 101.33 kPa, Crystal, Small sample (50 mg) DSC

[F][Lu]([F])[F] [lutetium(III) fluoride]
Conditions	molar heat capacity at constant pressure [J/K/mol]
399.7 K	96.75 ± 1.9
405.1 K	97.02 ± 1.9
410.5 K	95.88 ± 1.9
415.8 K	95.29 ± 1.9
421.1 K	96.94 ± 1.9
426.3 K	97.01 ± 1.9
431.5 K	96.43 ± 1.9
436.7 K	96.58 ± 1.9
441.9 K	96.64 ± 1.9
447.1 K	96.86 ± 1.9
452.2 K	96.8 ± 1.9
457.3 K	96.65 ± 1.9
462.5 K	95.51 ± 1.9
467.6 K	96.35 ± 1.9
472.6 K	96.98 ± 1.9
477.7 K	97.09 ± 1.9
482.8 K	97.11 ± 1.9
487.8 K	97.26 ± 1.9
492.9 K	97.48 ± 1.9
497.9 K	97.58 ± 1.9
502.9 K	97.68 ± 1.9
508 K	97.97 ± 2
513 K	98.13 ± 2
518 K	98.36 ± 2
523 K	98.49 ± 2
528 K	98.56 ± 2
533.1 K	98.68 ± 2
538.1 K	98.84 ± 2
543.1 K	98.87 ± 2
548.1 K	99.13 ± 2
553.1 K	99.24 ± 2
558.1 K	99.48 ± 2
563.1 K	99.09 ± 2
568.1 K	99.13 ± 2
573.1 K	99.33 ± 2
578.1 K	99.5 ± 2
583.1 K	99.58 ± 2
588 K	99.58 ± 2
593 K	99.6 ± 2
598 K	99.71 ± 2
603 K	99.98 ± 2
608 K	100.29 ± 2
613 K	100.45 ± 2
618 K	100.4 ± 2
623 K	100.24 ± 2
627.9 K	100.69 ± 2
632.9 K	101.13 ± 2
637.9 K	100.84 ± 2
642.9 K	101.01 ± 2
647.9 K	101.38 ± 2
652.9 K	101.53 ± 2
657.9 K	101.67 ± 2
662.8 K	101.64 ± 2
667.8 K	101.51 ± 2
672.8 K	101.61 ± 2
677.8 K	101.89 ± 2
682.8 K	102.02 ± 2
687.8 K	102.07 ± 2
692.8 K	102.12 ± 2
697.7 K	102.26 ± 2
702.7 K	102.44 ± 2
707.7 K	102.41 ± 2
712.7 K	102.81 ± 2.1
717.7 K	102.66 ± 2
722.7 K	102.97 ± 2.1
727.6 K	102.82 ± 2.1
732.6 K	104.53 ± 2.1
737.6 K	104.75 ± 2.1
742.6 K	104.55 ± 2.1
747.6 K	104.86 ± 2.1
752.6 K	105.12 ± 2.1
757.6 K	104.68 ± 2.1
762.6 K	103.97 ± 2.1
767.5 K	102.8 ± 2.1
772.5 K	103.35 ± 2.1
777.5 K	103.53 ± 2.1
782.5 K	103 ± 2.1
787.5 K	103.29 ± 2.1
792.5 K	103.69 ± 2.1
797.5 K	103.87 ± 2.1
802.4 K	103.76 ± 2.1
807.4 K	104.24 ± 2.1
812.4 K	103.94 ± 2.1
817.4 K	104.08 ± 2.1
822.4 K	104.49 ± 2.1
827.4 K	104.53 ± 2.1
832.4 K	104.46 ± 2.1
837.4 K	104.64 ± 2.1
842.3 K	104.66 ± 2.1
847.3 K	104.56 ± 2.1
852.3 K	104.93 ± 2.1
857.3 K	104.87 ± 2.1
862.3 K	104.94 ± 2.1
867.3 K	105.55 ± 2.1
872.3 K	105.31 ± 2.1
877.3 K	105.62 ± 2.1
882.2 K	105.71 ± 2.1
887.2 K	105.77 ± 2.1
892.2 K	105.39 ± 2.1
897.2 K	105.26 ± 2.1
902.2 K	105.24 ± 2.1
907.2 K	105.2 ± 2.1
912.2 K	105.01 ± 2.1
917.2 K	103.22 ± 2.1
922.2 K	101.86 ± 2
927.1 K	101.4 ± 2
932.1 K	101.32 ± 2
937.1 K	102.01 ± 2
942.1 K	103.86 ± 2.1
947.1 K	104.24 ± 2.1
952.1 K	104.41 ± 2.1
957.1 K	104.36 ± 2.1
962.1 K	105.18 ± 2.1
967.1 K	105.18 ± 2.1
972.1 K	104.61 ± 2.1
977 K	104.97 ± 2.1
982 K	105.26 ± 2.1
987 K	104.58 ± 2.1
992 K	104.27 ± 2.1
997 K	104.7 ± 2.1
1002 K	104.37 ± 2.1
1007 K	105.57 ± 2.1
1012 K	107.7 ± 2.1
1017 K	107.28 ± 2.1
1022 K	106.62 ± 2.1
1027 K	106.36 ± 2.1
1031.9 K	106.14 ± 2.1
1036.9 K	106.21 ± 2.1
1041.9 K	106.18 ± 2.1
1046.9 K	106.45 ± 2.1
1051.9 K	105.23 ± 2.1
1056.9 K	104.62 ± 2.1
1061.9 K	103.86 ± 2.1
1066.9 K	102.81 ± 2.1
1071.9 K	104.66 ± 2.1
1076.9 K	107.09 ± 2.1
1081.9 K	107.68 ± 2.1
1086.9 K	108.09 ± 2.2
1091.9 K	108.21 ± 2.2
1096.9 K	108.47 ± 2.2
1101.9 K	108.65 ± 2.2
1106.9 K	108.92 ± 2.2
1111.9 K	108.53 ± 2.2
1116.9 K	109.02 ± 2.2
1121.9 K	108.84 ± 2.2
1126.9 K	109.6 ± 2.2
1131.9 K	109.55 ± 2.2
1136.9 K	109.42 ± 2.2
1141.8 K	108.84 ± 2.2
1146.8 K	109.13 ± 2.2
1151.8 K	109.39 ± 2.2
1156.8 K	108.91 ± 2.2
1161.8 K	108.91 ± 2.2
1166.8 K	109.26 ± 2.2
1171.8 K	109.47 ± 2.2
1176.8 K	109.96 ± 2.2
1181.8 K	108.7 ± 2.2
1186.8 K	107.48 ± 2.1
1191.8 K	106.02 ± 2.1
1196.8 K	104.98 ± 2.1
1201.8 K	104.23 ± 2.1
1206.8 K	104.19 ± 2.1
1211.8 K	107.96 ± 2.2
